Read-outs that look alike come from different tables or passages of the source.
Experiments:
MCF-7 cell line = tested on: MCF-7 cell line; design: method as in PMID 27357845; conditions: read-out: EC50 against MCF-7 cell line; cited from earlier work
A2780 cells = assay: JC-10 mitochondrial membrane potential assay by flow cytometry; type: cell-based, human; conditions: A2780, 24 h, complexes at IC50, cisplatin 6.5 µM
Description: A membrane potential sensitive fluorescent probe JC‐10 was used to determine whether the apoptosis induced by complexes 6 and 8 is accompanied by changes in the mitochondrial membrane potential (ΔΨm) of A2780 cells. JC‐10 aggregates inside mitochondria and emits orange fluorescence. Following membrane […], JC‐10 is disaggregated and this in turn reduces the orange fluorescence.
Figure 8 Effect of complexes 6 and 8 on the mitochondrial membrane potential. […] The percentages of cells with depolarised mitochondrial membrane potential were assessed by flow cytometry after staining with JC‐10. The data are expressed as the means±SD of the three individual experiments.
Mitochondrial membrane potential assay: Analysis of the changes of mitochondrial potential in A2780 cells after exposure to complexes 6 and 8 was carried out using the JC‐10 mitochondrial membrane potential assay kit (abcam®) according to the manufacturer's instructions. Briefly, 1.0×10^6 cells per well were seeded in a 6‐well plate and incubated for 24 at 37 °C and a 5 % CO2 humidified atmosphere. […] Supernatants were removed by suction, and each well was washed with PBS before detaching the cells using trypsin. Staining of the samples was done in tubes protected from light, incubating for 30 min in the dark at room temperature. Samples were immediately analysed on a BD Accuri C6 Plus System Flow Cytometer, reading the reduction of fluorescence in the FL2 channel.

[1] = tested on: H460 non-small-cell lung cancer cells; assay: 24-hour MTT chemosensitivity assay with 72-hour recovery, H460; type: cell-based; conditions: for IC50: 24 h exposure, 72 h recovery, MTT, read-out: IC50 values ±SD, H460
Protocol: (§1) Chemosensitivity studies were undertaken using a 24‐hour MTT assay, with a 72‐hour recovery period. The IC50 values were determined against ovarian A2780 (cisplatin‐sensitive) and A2780cisR (cisplatin‐resistant) cancer cell lines, non‐small‐cell lung H460 cancer cell line, and normal prostate PNT2 cell line, exposed to each of compounds 4–8, cisplatin or the phosphine ligands (Table 1 and S4, Figures S29–S31). […] This is unusual but can be related to solubility issues not visible for the naked eye and thus hindering its activity in cells. […] When tested on their own, the phosphine ligands are not active below 100 μM for all four cell lines. […] This therefore prevents comparison with the well‐known RAPTA family, and more especially with RAPTA−C which bears a PTA ligand and a p‐cym ligand, making this complex relatively similar in terms of geometry with complex 4.[21] […] This confirms the interest of the sulfur coordinating atom in terms of cytotoxicity for organoruthenium complexes.[23]
(§2) Chemosensitivity assay: In vitro chemosensitivity tests were performed against A2780, A2780cisR, PNT2 and H460 cells. Cells were routinely maintained as monolayer cultures in RPMI 1640 medium supplemented with 10 % foetal calf serum, penicillin (100 I.U./mL) and streptomycin (100 μg/mL), sodium pyruvate (1 mM) and L‐glutamine (2 mM). For chemosensitivity studies, cells were seeded in 96‐well plates at a concentration of 7.5×10^3 cells per well and the plates were incubated for 24 h at 37 °C and a 5 % CO2 humidified atmosphere prior to drug exposure.
(§3) Complexes were dissolved in either DMSO (complexes 4, 5, and 8) or PBS (complexes 6 and 7) to provide stock solutions which were further diluted with media to provide a range of final concentrations. Drug‐media solutions were added to cells (the final concentration of DMSO was less than 1 % (v/v) in all cases) and incubated for 24 h at 37 °C and a 5 % CO2 humidified atmosphere. The drug‐media solution was removed from the wells and the cells were washed with PBS (100 μL, twice) and 200 μL of complete fresh media were added to each well. The plates were further incubated for 72 h at 37 °C and a 5 % CO2 humidified atmosphere to allow for a period of recovery. 3‐(4,5‐dimethylthiazol‐2‐yl)‐2,5‐diphenyltetrazolium bromide (MTT) (40 μL, 2.5 mg/mL) was added to each well and plates were incubated for 2 h. All solutions were then removed and 100 μL of DMSO was added to each well in order to dissolve the purple formazan crystals. A Thermo Scientific Multiskan EX microplate photometer was used to measure the absorbance in each well at 570 nm. Cell survival was determined as the absorbance of treated cells divided by the absorbance of controls and expressed as a percentage. The IC50 values were determined from plots of % survival against drug concentration. Each experiment was repeated in triplicates of triplicates and a mean value was obtained and stated as IC50 (μM) ± SD. Untreated cells were used as a negative control, and cells treated with cisplatin were used as a positive control.

[2] = tested on: PNT2 non-cancerous human prostate cells; assay: 24-hour MTT chemosensitivity assay with 72-hour recovery, PNT2; type: cell-based; conditions: 24 h exposure, 72 h recovery, MTT; read-out: IC50 values ±SD, PNT2
Protocol: as §1, §2, §3

[3] = tested on: A2780 ovarian cancer cells; assay: 24-hour MTT chemosensitivity assay with 72-hour recovery, A2780; type: cell-based, human; conditions: for IC50: 24 h exposure, 72 h recovery, MTT, read-out: IC50 values ±SD, A2780
Protocol: as §1, §2, §3

[4] = tested on: A2780cisR cisplatin-resistant ovarian cancer cells; assay: 24-hour MTT chemosensitivity assay with 72-hour recovery, A2780cisR; type: cell-based, human; conditions: for IC50: 24 h exposure, 72 h recovery, MTT, read-out: IC50 values ±SD, A2780cisR
Protocol: as §1, §2, §3

[5] = Precipitation in drug-medium solutions; type: physicochemical
[6] = tested on: H460 non-small-cell lung cancer cells; design: method as in PMID 32237195; conditions: read-out: IC50 values ±SD, H460; cited from earlier work
[7] = tested on: non-immortalised lymphocytes; design: method as in PMID 33119178; conditions: cited from earlier work
[8] = tested on: ovarian, colon, and lung cancer cell lines; design: method as in PMID 32237195; conditions: some ovarian; cited from earlier work
[9] = tested on: A2780 ovarian cancer cells; design: method as in PMID 32237195; conditions: read-out: IC50 values ±SD, A2780; cited from earlier work
[10] = tested on: A2780cisR cisplatin-resistant ovarian cancer cells; design: method as in PMID 32237195; conditions: read-out: IC50 values ±SD, A2780cisR; cited from earlier work

Cc1ccc(C(C)C)cc1.[Cl][Ru-]1[O][n+]2ccccc2[S]1 [[(η^6‐p‐cymene)Ru(pyrithionato)Cl]]
EC50 (MCF-7 cell line): 3.81 ± 0.06 µM

N.N.[Cl][Pt][Cl] [Cisplatin, reference compound]
% cell population with high orange fluorescence (A2780 cells; Experiment 1): 88.9%
% cell population with low orange fluorescence (A2780 cells; Experiment 1): 11.1%
% cell population with high orange fluorescence (A2780 cells; Experiment 2): 87%
% cell population with low orange fluorescence (A2780 cells; Experiment 2): 13.0%
% cell population with high orange fluorescence (A2780 cells; Experiment 3): 82.1%
% cell population with low orange fluorescence (A2780 cells; Experiment 3): 17.9%
% cell population with high orange fluorescence (A2780 cells; Summary, mean values ± SD): 86 ± 3.5%
IC50 [1]: 4.5 ± 0.2 µM
Selectivity index (SI), H460 ([1]; mean IC50 PNT2 / mean IC50 H460): 2.67
IC50 [2]: 12 ± 0.7 µM
IC50 [3]: 6.5 ± 0.4 µM
Selectivity index (SI), A2780 ([3]; mean IC50 PNT2 / mean IC50 A2780): 1.85
IC50 [4]: 18 ± 0.6 µM
Selectivity factor (cross-resistance, resistance factor RF) ([4]; IC50 A2780cisR / IC50 A2780): 2.8
Selectivity index (SI), A2780cisR ([4]; mean IC50 PNT2 / mean IC50 A2780cisR): 0.67

Cc1ccc(C(C)C)cc1.N#CC1=C(C#N)[S][Ru-]([P+]23CN4CN(CN(C4)C2)C3)[S]1 [Complex 4, (η^6‐p‐cymene)(PTA)Ru(Mnt)]
Concentration above which the complex precipitates [5]: higher than 50 μM
IC50 [1]: ≥ 50 µM
IC50 [2]: ≥ 50 µM
IC50 [3]: ≥ 50 µM
IC50 [4]: ≥ 50 µM

Cc1ccc(C(C)C)cc1.N#CC1=C(C#N)[S][Ru][S]1 [Complex 3, [(η^6‐p‐cymene)Ru(Mnt)]]
IC50 [6]: 0.8 ± 0.1 µM
Toxicity against non-immortalised lymphocytes from healthy individuals [7]: absence of toxicity
Potency relative to cisplatin [8]: 5 to 60 ×
IC50 [9]: 0.5 ± 0.04 µM
IC50 [10]: 0.32 ± 0.15 µM

Reference: PMC9545474, “Anticancer Water‐Soluble Organoruthenium Complexes: Synthesis and Preclinical Evaluation” (Chembiochem, 2022)
